Assay in all cases: stopped-flow CO2 hydration
What all share (assay type): biochemical

Assay [1] has as its target T1, VchCAα (Vibrio cholerae, UniProt Q9KMP6).
T1 construct: gene VC_A0274
The following applies: read-out: Ki (μM)^a / VchCAα; […] h preincubation at […] °C; […] HEPES pH […] NaClO4; prodrug, lactone hydrolysed by CA esterase activity.

For assay [2], the target named is T2, NgCAα (Neisseria gonorrhoeae, UniProt Q50940).
T2 construct: gene cah; recombinant, obtained in-house as described earlier
T2 sequence (Q50940 27-252): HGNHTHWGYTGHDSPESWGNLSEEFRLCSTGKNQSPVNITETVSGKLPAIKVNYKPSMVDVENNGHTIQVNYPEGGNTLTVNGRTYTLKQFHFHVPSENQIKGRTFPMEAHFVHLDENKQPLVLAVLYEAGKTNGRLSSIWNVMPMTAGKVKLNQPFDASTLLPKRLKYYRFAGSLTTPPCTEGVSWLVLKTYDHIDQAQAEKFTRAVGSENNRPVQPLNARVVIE

For assay [3], the target named is T3, hCA I (Homo sapiens, UniProt P00915).
T3 construct: gene CA1; recombinant, obtained in-house as described earlier
T3 sequence (P00915 2-261): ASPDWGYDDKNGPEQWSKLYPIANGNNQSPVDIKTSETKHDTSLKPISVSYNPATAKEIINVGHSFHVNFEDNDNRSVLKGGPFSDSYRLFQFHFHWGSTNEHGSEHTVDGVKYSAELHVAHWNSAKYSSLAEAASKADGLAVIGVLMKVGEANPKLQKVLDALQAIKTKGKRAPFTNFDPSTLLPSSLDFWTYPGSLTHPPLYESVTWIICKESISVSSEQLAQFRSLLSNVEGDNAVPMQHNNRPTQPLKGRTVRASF

Assay [4] concerns the target T4, hCA II (Homo sapiens, UniProt P00918).
T4 construct: gene CA2; recombinant, obtained in-house as described earlier

Each structure is given as a SMILES string. Where two headings read alike, the source gives them in different places.

T1 sequence (Q9KMP6 21-239 limits assumed): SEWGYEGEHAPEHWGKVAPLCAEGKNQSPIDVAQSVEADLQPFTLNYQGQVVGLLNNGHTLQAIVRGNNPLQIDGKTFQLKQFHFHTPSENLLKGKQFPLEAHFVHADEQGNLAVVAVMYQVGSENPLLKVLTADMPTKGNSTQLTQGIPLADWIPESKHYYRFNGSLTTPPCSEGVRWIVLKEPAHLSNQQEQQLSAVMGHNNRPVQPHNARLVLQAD

As for `O=c1ccc2ccccc2o1` [compound 1, simple unsubstituted coumarin 1], the Ki worked out at 94.7 µM in assay [1] and 81.6 µM in assay [2] (read-out: Ki (μM)^a / NgCAα).
On to `O=c1ccc2cc(O)ccc2o1` [compound 2, 2], for which the Ki amounted to 192 µM in assay [3] (read-out: Ki (μM)^a / hCA I), 683 µM in assay [4] (read-out: Ki (μM)^a / hCA II), 77.5 µM in assay [1] and 92.4 µM in assay [2] (read-out: Ki (μM)^a / NgCAα).
Regarding `O=c1ccc2ccc(O)cc2o1` [compound 3, 3], the Ki in assay [1] worked out at 68.5 µM; in assay [2] (read-out: Ki (μM)^a / NgCAα), 77.1 µM.
Regarding `O=c1cc(O)c2ccccc2o1` [compound 4, 4], the Ki came to 394 µM in assay [3], 513 µM in assay [4], 92.2 µM in assay [1] and 94.7 µM in assay [2].
In the case of `O=c1oc2ccccc2cc1O` [compound 5, 5], the Ki in assay [3] (read-out: Ki (μM)^a / hCA I) was 490 µM; in assay [4] (read-out: Ki (μM)^a / hCA II), 625 µM; in assay [1], 290 µM; in assay [2] (read-out: Ki (μM)^a / NgCAα) it was 110 µM.
The corresponding values for `Nc1ccc2c(C(F)(F)F)cc(=O)oc2c1` [compound 7, 7] are 940 µM, 733 µM, 95 µM and 97.1 µM.
The matching figures for `CCN(CC)c1ccc2c(C)cc(=O)oc2c1` [compound 8, 4-methyl-7-diethylamino-coumarin]: 517 µM, 559 µM, 53.9 µM and 28.6 µM.
The corresponding values for `CC(=O)c1c(O)ccc2ccc(=O)oc12` [compound 9, 7-hydroxy-8-acetyl-coumarin] are 949 µM, 646 µM, 39.8 µM and 42.5 µM.
On to `Cc1cc2ccc(O)cc2oc1=O` [compound 10, 10], for which the Ki in assay [3] (read-out: Ki (μM)^a / hCA I) is 137 µM; in assay [4] (read-out: Ki (μM)^a / hCA II), 297 µM; in assay [1], 66.8 µM; in assay [2] (read-out: Ki (μM)^a / NgCAα), 68 µM.
The matching figures for `CCOC(=O)Cc1cc(=O)oc2cc(O)ccc12` [compound 11, 11]: 749 µM, 876 µM, 439 µM and 469 µM.
In the case of `O=c1cc(O)c2ccc(O)cc2o1` [compound 12, 12], the Ki was 182 µM in assay [3] (read-out: Ki (μM)^a / hCA I), 758 µM in assay [4] (read-out: Ki (μM)^a / hCA II), 66 µM in assay [1] and 77.6 µM in assay [2] (read-out: Ki (μM)^a / NgCAα).
The matching figures for `CCOC(=O)c1cc2ccc(O)cc2oc1=O` [compound 13, 13]: 900 µM, 961 µM, 432 µM and 395 µM.
The corresponding values for `CC(=O)c1cc2ccc(O)cc2oc1=O` [compound 14, 14] are 470 µM, 786 µM, 303 µM and 395 µM.

The values are drawn from paper PMC8741243 (Journal of Enzyme Inhibition and Medicinal Chemistry, 2022).
